Assay results reported in ChEMBL document CHEMBL1151562, “Stereoselective synthesis of novel analogues of 2-deoxy- and 2,3-dideoxynucleosides with potential antiviral activity” (Bioorg Med Chem Lett, 1994).
The source made the active and inactive calls.

Experiments:
Type in all cases: functional, cell-based
Daudi [1] = assay: Tested for antiproliferative activity against human tumor DAUDI EBV-immortalized B-lymphoid cells up to 72 hrs at concentration of 10 ug/ml; Inactive
Daudi [2] = assay: Tested for antiproliferative activity against human tumor DAUDI EBV-immortalized B-lymphoid cells up to 72 hrs at concentration of 2.5 ug/ml; Inactive
Daudi [3] = assay: Tested for antiproliferative activity against human tumor DAUDI EBV-immortalized B-lymphoid cells up to 72 hrs at concentration of 5 ug/ml; Inactive
[4] = Tested for cell count against human tumor Molt-4 cell line for antiproliferative activity; Inactive
Daudi [5] = assay: Tested for antiproliferative activity against human tumor DAUDI EBV-immortalized B-lymphoid cells up to 72 hrs at concentration of 1.25 ug/ml; Inactive
HL-60 [6] = assay: Tested for antiproliferative activity against human tumor HL60 myeloid cells up to 72 hrs at concentration of 10 ug/ml; Inactive
[7] = Tested for cell count against human tumor DAUDI EBV-immortalized B-lymphoid cells for antiproliferative activity; Inactive
K562 = assay: Tested for cell count against human tumor K562 erythromyeloid stem cells for antiproliferative activity; Inactive
[8] = Tested for cell count against human tumor MT-2 T-lymphoid cells for antiproliferative activity; Inactive
MT2 [9] = assay: Tested for antiproliferative activity against human tumor MT-2 T-lymphoid cells up to 72 hrs at concentration of 1.25 ug/ml; Inactive
MT2 [10] = assay: Tested for antiproliferative activity against human tumor MT-2 T-lymphoid cells up to 72 hrs at concentration of 10 ug/ml; Inactive
MT2 [11] = assay: Tested for antiproliferative activity against human tumor MT-2 T-lymphoid cells up to 72 hrs at concentration of 2.5 ug/ml; Inactive
MT2 [12] = assay: Tested for antiproliferative activity against human tumor MT-2 T-lymphoid cells up to 72 hrs at concentration of 5 ug/ml; Inactive
[13] = Tested for antiproliferative activity against human tumor U937 cell line up to 72 hrs at concentration of 1.25 ug/ml; Inactive
Daudi [14] = assay: (§1) Tested for antiproliferative activity against human tumor U937 cell line up to 72 hrs at concentration of 10 ug/ml; Inactive; conditions: U-937
[15] = Tested for antiproliferative activity against human tumor U937 cell line up to 72 hrs at concentration of 2.5 ug/ml; Inactive
[16] = (§2) Tested for antiproliferative activity against human tumor U937 cell line up to 72 hrs at concentration of 5 ug/ml; Inactive
[17] = Tested for cell count against human tumor HL60 myeloid cells for antiproliferative activity; Inactive
MOLT-4 [18] = assay: Tested for antiproliferative activity against human tumor Molt-4 cell line up to 72 hrs at concentration of 5 ug/ml; Inactive
MOLT-4 [19] = assay: Tested for antiproliferative activity against human tumor Molt-4 cell line up to 72 hrs at concentration of 1.25 ug/ml; Inactive
MOLT-4 [20] = assay: Tested for antiproliferative activity against human tumor Molt-4 cell line up to 72 hrs at concentration of 10 ug/ml; Inactive
MOLT-4 [21] = assay: Tested for antiproliferative activity against human tumor Molt-4 cell line up to 72 hrs at concentration of 2.5 ug/ml; Inactive
[22] = as §1
HL-60 [23] = assay: as §2

Measured: Activity

CC1[C@@H](O)[C@@H](CO)O[C@H]1n1ccc(=O)[nH]c1=O (single isomer, unassigned; 5a)
not listed: [22] | HL-60 [23]
inactive: all other assays above

C=CC[C@H]1C[C@@H](CO)OC1n1ccc(=O)[nH]c1=O (some centres undefined)
not listed: HL-60 [6] | Daudi [14]
inactive: all other assays above
